Reference: patent publication US4897503A, “1,1,2-triaryl-1-alkene derivatives” (Taiho Pharmaceutical, priority 1986, dated 1990)
Read-outs that look alike come from different tables or passages of the source.

Key:
[1] = vs tamoxifen; cited from earlier work
[2] = tested on: experimental hormone-dependent tumor cells; conditions: vs tamoxifen; cited from earlier work
[3] = tested on: mammary cancer induced by 7,12-dimethylbenzanthracene (DMBA); assay: Effect on DMBA-induced mammary cancer: inhibition of appearance of new tumor; type: in vivo, rat (Sprague-Dawley, female); conditions: for Inhibition of appearance of new tumor: 6 times a week for 3 weeks, 15 animals
Experimental: (§1) The experiments were performed in 7-week-old female Sprague-Dawley rats bearing mammary cancer which had been induced by oral administration of 7,12-dimethylbenzanthracene (DMBA) according to the method described in European Journal of Cancer and Clinical Oncology 11, 571 (1975) and Cancer Research 26, 2169 (1966). The inhibitory effect of each test compound on this cancer was investigated.
(§2) Each test compound was suspended in an aqueous solution containing 0.5% of carboxymethylcellulose and 0.5% of Tween 80 and the suspension was orally administered by gastric gavage 6 times a week for 3 consecutive weeks. Once a week and on the 21st day, the number of induced tumors was counted and the surface area of tumors was measured. The percent increase in surface area relative to the surface area on the first day of administration was calculated and the result was compared with the result in the control group. The inhibitory effects on the appearance of new tumor are shown in Table 7 and the inhibitory effects on the enlargement of the tumor are shown in Table 8. The inhibition of appearance of new tumor (%) was calculated according to the formula: 100-(N/M)×100 where N is the number of newly appeared tumors in test group and M is the number of newly appeared tumors in control group.

uterus = assay: Anti-uterotrophic effect (inhibition of uterine weight gain in immature rats); type: in vivo, rat (Sprague-Dawley, female; conditions: Rattus norvegicus, 504 h, read-out: ED50 (50% inhibition of uterine weight gain)
Excerpt: The antiuterotophic activity of each test compound was studied using immature 4-week-old female Sprague-Dawley rats, according to the method described in Methods in Hormone Research, vol. 2, Academic Press p. 707 (1962).
Each test compound was suspended in a vehicle solution (i.e., an aqueous solution containing 0.5% of carboxymethylcellulose and 0.5% of Tween 80) and the suspension was orally administered using a stomach tube 6 times a week for 3 consecutive weeks at various doses. The animals were autopsied one day after the final administration and the uterus was weighed.
The percent inhibition of uterine weight gain was calculated by the formula
Percent inhibition=(A-C)×100/(A-B)
where A is the mean value of the uterine weight of the control which received the vehicle solution, B is that of the ovariectomized control (i.e., animals ovariectomized at the age of four weeks and thereafter treated with the vehicle solution for 3 weeks) and C is that of the animals which received each dose of each test compound. Then, the dose of each test compound causing a 50% inhibition (ED50) was calculated from the dose-response curve.

[4] = tested on: mammary cancer induced by 7,12-dimethylbenzanthracene (DMBA); assay: Effect on DMBA-induced mammary cancer: inhibition of tumor growth; type: in vivo, rat (Sprague-Dawley, female); conditions: 6 times a week for 3 weeks, 15 animals
Experimental: as §1, §2

[5] = Acute toxicity test (oral and intraperitoneal, Up-and-Down method); design: species or system mouse (ddY strain); conditions: mouse, in vivo, 6-week old male ddY mice, 3 weeks observation
Experimental: The acute oral and intraperitoneal toxicity of these compounds were investigated in 6-week old male ddY strain mice. In the oral toxicity study, each test compound was suspended or dissolved in an aqueous solution containing 0.5% of carboxymethylcellulose and 0.5% of Tween 80 and was administered at a dose of 4 ml/100 g. In the intraperitoneal toxicity study, each test compound was suspended or dissolved in physiological saline containing 0.5% of Tween 80 and was administered at a dose of 2 ml/100 g.

[6] = ip, intraperitoneal, read-out: LD50 intraperitoneal

Compound	effectiveness in vivo, in words [1]	antitumor activity in vitro, in words [2]	Inhibition of appearance of new tumor ([3]; 0.1 mg/kg/day p.o.) [%]	Inhibition of appearance of new tumor ([3]; 0.3 mg/kg/day p.o.) [%]	ED50 (uterus; po) [mg/kg]	Inhibition of tumor growth (on day 21) ([4]; 0.1 mg/kg/day p.o.) [%]	Inhibition of tumor growth (on day 21) ([4]; 0.3 mg/kg/day p.o.) [%]	LD50 at 504 h [5, 6] [mg/kg]	LD50 at 504 h ([5]; oral, read-out: LD50 oral) [mg/kg]	inhibition of appearance of new mammary cancer, in words ([3]; 0.1 mg/kg/day)	ED50 (uterus; oral, 6 times a week for 3 weeks, immature female SD rats, 7 animals) [mg/kg]
CC/C(=C(\c1ccc(O)cc1)c1ccc(OCCN(C)C)cc1)c1ccccc1 [4-hydroxytamoxifen]	inferior in effectiveness to tamoxifen	more potent antitumor activity than tamoxifen									
CC/C(=C(/c1ccc(OCCN(C)C)cc1)c1ccc(OP(=O)(O)O)cc1)c1ccccc1 [Compound 1, (E)-4-[1-[4-[2-(Dimethylamino)ethoxy]phenyl]-2-phenyl-1-butenyl]-phenyl phosphate]			56.7	54.7	0.076	26.5	42.3	223	> 2000		
CCC(=C(c1ccc(OCCN(C)C)cc1)c1ccc(OP(=O)(O)O)cc1)c1ccc(C(C)C)cc1 [Compound 5]			46.7	48.5	0.097	26.5	50.2	354	> 2000		
CCOc1ccc(/C(CC)=C(/c2ccc(OCCN(C)C)cc2)c2ccc(OP(=O)(O)O)cc2)cc1 [Compound 7]					0.026			223	> 2000		
CC/C(=C(\c1ccccc1)c1ccc(OCCN(C)C)cc1)c1ccccc1 [Tamoxifen, reference compound]			-7.7	21.0		4.7	39.0	177	> 2000	ineffective	0.203
